Source: ChEMBL document CHEMBL6127067, “Discovery, Biosynthesis, and Characterization of Rodencin, a Two-Component Lanthipeptide, Harboring d-Amino Acids Introduced by the Unusual Dehydrogenase RodJA” (J Nat Prod, 2024)
Calls of active or inactive are those of the source. No cut-off for these calls is given here.

Key:
Staphylococcus aureus [1] = experiment: Antimicrobial activity against Staphylococcus aureus LMG 8224 assessed as absence of visible growth measured after 20 hrs by broth dilution assay; format: functional, organism-based
Lactococcus lactis = experiment: Antimicrobial activity against Lactococcus lactis NZ9000 assessed as absence of visible growth measured after 20 hrs by broth dilution assay; format: functional, organism-based
Micrococcus flavus = experiment: Antimicrobial activity against Micrococcus flavus NIZO B423 assessed as absence of visible growth measured after 20 hrs by broth dilution assay; format: functional, organism-based
Listeria monocytogenes [2] = experiment: Antimicrobial activity against Listeria monocytogenes LMG 10470 assessed as absence of visible growth measured after 20 hrs by broth dilution assay; format: functional, organism-based
Bacillus subtilis = experiment: Antimicrobial activity against Bacillus subtilis 168 assessed as absence of visible growth measured after 20 hrs by broth dilution assay; format: functional, organism-based
Listeria monocytogenes [3] = experiment: Antimicrobial activity against Listeria monocytogenes LMG 10470 assessed as absence of visible growth in presence of Rod-alpha measured after 20 hrs by broth dilution assay; format: functional, organism-based
Enterococcus faecium [4] = experiment: Antimicrobial activity against Enterococcus faecium LMG 16003 assessed as absence of visible growth measured after 20 hrs by broth dilution assay; format: functional, organism-based
Cell membrane [5] = experiment: Induction of outer membrane permeability in Escherichia coli using 1-N-Nphenylnaphthylamine fluorescent probe by microplate reader; format: subcellular
Bacillus cereus [6] = experiment: Antimicrobial activity against Bacillus cereus ATCC14579 assessed as absence of visible growth in presence of Rod-alpha measured after 20 hrs by broth dilution assay; format: functional, organism-based
Cell membrane [7] = experiment: Induction of outer membrane permeability in Escherichia coli using 1-N-Nphenylnaphthylamine fluorescent probe in presence of Rod alpha by microplate reader; format: subcellular
Cell membrane [8] = experiment: Induction of inner membrane permeability in Micrococcus flavus NIZO B423 using DNA-binding stain propidium iodide in presence of Rod alpha by membrane integrity assay
Cell membrane [9] = experiment: Induction of inner membrane permeability in Micrococcus flavus NIZO B423 using DNA-binding stain propidium iodide by membrane integrity assay; format: subcellular
Staphylococcus aureus [10] = experiment: Antimicrobial activity against Staphylococcus aureus LMG 15975 assessed as absence of visible growth measured after 20 hrs by broth dilution assay; format: functional, organism-based
Bacillus cereus [11] = experiment: Antimicrobial activity against Bacillus cereus ATCC14579 assessed as absence of visible growth measured after 20 hrs by broth dilution assay; format: functional, organism-based
Escherichia coli = experiment: Antimicrobial activity against Escherichia coli LMG 8223 assessed as absence of visible growth measured after 20 hrs by broth dilution assay; format: functional, organism-based
Staphylococcus aureus [12] = experiment: Antimicrobial activity against methicillin-resistant Staphylococcus aureus assessed as absence of visible growth in presence of Rod-alpha measured after 20 hrs by broth dilution assay; format: functional, organism-based
Enterococcus faecium [13] = experiment: Antimicrobial activity against Enterococcus faecium LMG 16003 assessed as absence of visible growth in presence of Rod-alpha measured after 20 hrs by broth dilution assay; format: functional, organism-based
Salmonella enterica = experiment: Antimicrobial activity against Salmonella enterica LMG 07233 assessed as absence of visible growth measured after 20 hrs by broth dilution assay; format: functional, organism-based
Listeria monocytogenes [14] = experiment: Antimicrobial activity against Listeria monocytogenes LMG 10470 assessed as absence of visible growth in presence of Rod-beta measured after 20 hrs by broth dilution assay; format: functional, organism-based
Cell membrane [15] = experiment: Induction of outer membrane permeability in Escherichia coli using 1-N-Nphenylnaphthylamine fluorescent probe in presence of Rod beta by microplate reader; format: subcellular
Staphylococcus aureus [16] = experiment: Antimicrobial activity against methicillin-resistant Staphylococcus aureus assessed as absence of visible growth in presence of Rod-beta measured after 20 hrs by broth dilution assay; format: functional, organism-based
Cell membrane [17] = experiment: Induction of inner membrane permeability in Micrococcus flavus NIZO B423 using DNA-binding stain propidium iodide in presence of Rod beta by membrane integrity assay
Bacillus cereus [18] = experiment: Antimicrobial activity against Bacillus cereus ATCC14579 assessed as absence of visible growth in presence of Rod-beta measured after 20 hrs by broth dilution assay; format: functional, organism-based
[19] = Binding affinity to externally added Lipid II (unknown origin) in Micrococcus flavus NIZO B423 broth assessed as decrease in antimicrobial activity against Micrococcus flavus by Spot-on-lawn assay
Enterococcus faecium [20] = experiment: Antimicrobial activity against Enterococcus faecium LMG 16003 assessed as absence of visible growth in presence of Rod-beta measured after 20 hrs by broth dilution assay; format: functional, organism-based

SMILES | Activity (Staphylococcus aureus [1]) | Activity (Lactococcus lactis) | Activity (Micrococcus flavus) | Activity (Listeria monocytogenes [2]) | Activity (Bacillus subtilis) | Activity (Enterococcus faecium [4]) | Activity (Cell membrane [5]) | Activity (Cell membrane [9]) | Activity (Staphylococcus aureus [10]) | Activity (Bacillus cereus [11]) | Activity (Escherichia coli) | Activity (Salmonella enterica) | other results
C/C=C(/NC(=O)[C@@H](N)Cc1c[nH]c2ccccc12)C(=O)N1CCC[C@H]1C(=O)N[C@@H](C)C(=O)N[C@@H](CC(C)C)C(=O)N[C@H](C)C(=O)N[C@H](C(=O)N[C@H](C(=O)N[C@H](CC)C(=O)NCC(=O)N[C@@H](Cc1ccc(O)cc1)C(=O)N[C@H](C(=O)N[C@@H]1CSC[C@H](C(=O)N2CCC[C@H]2C(=O)N[C@H]2CCSC[C@H](C(=O)N[C@H]3CCSC[C@H](C(=O)O)NC(=O)[C@H](C)NC(=O)[C@H](CCCNC(=N)N)NC3=O)NC(=O)[C@H](C)NC(=O)[C@H]([C@@H](C)O)NC2=O)NC(=O)[C@H]([C@@H](C)O)NC(=O)[C@H](CC(N)=O)NC(=O)[C@H](CO)NC1=O)[C@@H](C)CC)[C@@H](C)CC)C(C)C | inactive | inactive | inactive | inactive | inactive | inactive | inactive | inactive | inactive | inactive | inactive | inactive | Activity (Listeria monocytogenes [3]): Active; Activity (Bacillus cereus [6]): Active; Activity (Cell membrane [7]): Active; Activity (Cell membrane [8]): Active; Activity (Staphylococcus aureus [12]): Active; Activity (Enterococcus faecium [13]): Active
C/C=C(\NC(=O)[C@H](CC(N)=O)NC(=O)/C(=C/C)NC(=O)[C@@H]1CCSC[C@@H](N)C(=O)N1)C(=O)N[C@@H](Cc1ccccc1)C(=O)N[C@H](C)C(=O)N[C@@H](CC(C)C)C(=O)N[C@@H]1CSC[C@H](C(=O)N[C@H]2CCSC[C@H]3NC(=O)[C@H](CCC(=O)O)NC(=O)[C@H](CCCCN)NC(=O)[C@@H](CSC[C@H](C(=O)O)NC(=O)[C@H](Cc4c[nH]c5ccccc45)NC(=O)[C@H](C)NC(=O)[C@H](CCSC)NC3=O)NC(=O)[C@H](C(C)C)NC2=O)NC(=O)[C@H](Cc2c[nH]c3ccccc23)NC(=O)CNC(=O)CNC(=O)[C@H](CCCCN)NC(=O)[C@H](CC(N)=O)NC(=O)CNC(=O)[C@H](Cc2c[nH]c3ccccc23)NC(=O)[C@H](Cc2ccc(O)cc2)NC(=O)[C@H](CC(=O)O)NC1=O | inactive | inactive | inactive | inactive | inactive | inactive | inactive | inactive | inactive | inactive | inactive | inactive | Activity (Listeria monocytogenes [14]): Active; Activity (Cell membrane [15]): Active; Activity (Staphylococcus aureus [16]): Active; Activity (Cell membrane [17]): Active; Activity (Bacillus cereus [18]): Active; Activity [19]: Active; Activity (Enterococcus faecium [20]): Active
